Assay results reported in ChEMBL document CHEMBL3414456, “Pentacyclic triterpene derivatives possessing polyhydroxyl ring A inhibit gram-positive bacteria growth by regulating metabolism and virulence genes expression” (2015).
≈ marks a conversion by molar mass, not a printed value. Calls of active or inactive are those of the source. The rule behind the calls is not given here.

How the values were obtained:
Bacillus spizizenii [1] = test: Antibacterial activity against Bacillus subtilis ATCC 6633 assessed as growth inhibition at 100 uM after 24 hrs by turbidimetric analysis; assay type: functional; conditions: for inhibition of growth at 100 µM: ATCC 6633, 24 h, read-out: GI
Staphylococcus aureus [2] = test: Antibacterial activity against Staphylococcus aureus ATCC 25923 assessed as growth inhibition at 100 uM after 24 hrs by turbidimetric analysis; assay type: functional; conditions: for inhibition of growth at 100 µM: ATCC 25923, 24 h, read-out: GI
Streptomyces scabiei [3] = test: Antibacterial activity against Streptomyces scabiei CGMCC4.7610246 assessed as growth inhibition at 100 uM after 36 hrs by turbidimetric analysis; assay type: functional, organism-based
Escherichia coli = test: Antibacterial activity against Escherichia coli assessed as growth inhibition at 100 uM after 24 hrs by turbidimetric analysis; assay type: functional, organism-based
Ralstonia solanacearum = test: Antibacterial activity against Ralstonia solanacearum assessed as growth inhibition at 100 uM after 24 hrs by turbidimetric analysis; assay type: functional, organism-based
Bacillus spizizenii [4] = test: Antibacterial activity against Bacillus subtilis ATCC 6633 assessed as growth inhibition after 24 hrs by turbidimetric analysis; assay type: functional; conditions: ATCC 6633, 24 h
Staphylococcus aureus [5] = test: Antibacterial activity against Staphylococcus aureus ATCC 25923 assessed as growth inhibition after 24 hrs by turbidimetric analysis; assay type: functional; conditions: ATCC 25923, 24 h
Streptomyces scabiei [6] = test: Antibacterial activity against Streptomyces scabiei CGMCC4.7610246 assessed as growth inhibition after 36 hrs by turbidimetric analysis; assay type: functional; conditions: CGMCC4.7610246, 36 h
Staphylococcus aureus [7] = test: Antibacterial activity against Staphylococcus aureus ATCC 25923 assessed as growth inhibition after 2 to 24 hrs; assay type: functional, organism-based

Row | SMILES | growth inhibition (GI) (Bacillus spizizenii [1]) | growth inhibition (GI) (Staphylococcus aureus [2]) | growth inhibition (GI) (Streptomyces scabiei [3]) | MIC (Bacillus spizizenii [4]) | MIC (Staphylococcus aureus [5]) | MIC (Streptomyces scabiei [6]) | further results
1 | C[C@H]1[C@H](C)CC[C@]2(C(=O)OCc3ccc(Cl)cc3)CC[C@]3(C)C(=CC[C@@H]4[C@@]5(C)[C@@H](O)[C@H](O)[C@H](O)C(C)(C)[C@@H]5CC[C@]43C)[C@H]12 | Active | Active | inactive |  |  |  | 
2 | C[C@H]1[C@H](C)CC[C@]2(C(=O)OCc3ccccc3[N+](=O)[O-])CC[C@]3(C)C(=CC[C@@H]4[C@@]5(C)[C@@H](O)[C@H](O)[C@H](O)C(C)(C)[C@@H]5CC[C@]43C)[C@H]12 | Active | Active | inactive |  |  |  | 
3 | C[C@H]1[C@H](C)CC[C@]2(C(=O)OCc3ccc([N+](=O)[O-])cc3)CC[C@]3(C)C(=CC[C@@H]4[C@@]5(C)[C@@H](O)[C@H](O)[C@H](O)C(C)(C)[C@@H]5CC[C@]43C)[C@H]12 | Active | Active | inactive |  |  |  | 
4 | C[C@H]1[C@H](C)CC[C@]2(C(=O)O)CC[C@]3(C)C(=CC[C@@H]4[C@@]5(C)[C@@H](O)[C@H](O)[C@H](O)C(C)(C)[C@@H]5CC[C@]43C)[C@H]12 | Active | Active | Active |  |  |  | 
5 | C[C@H]1[C@H](C)CC[C@]2(C(=O)OCc3ccccc3)CC[C@]3(C)C(=CC[C@@H]4[C@@]5(C)[C@H]6O[C@H]6[C@@H](O)C(C)(C)[C@@H]5CC[C@]43C)[C@H]12 | Active | Active | Active |  |  |  | growth inhibition (GI) (Escherichia coli): Active; growth inhibition (GI) (Ralstonia solanacearum): Active
6 | CC1(C)CC[C@]2(C(=O)OCc3ccccc3[N+](=O)[O-])CC[C@]3(C)C(=CC[C@@H]4[C@@]5(C)[C@@H](O)[C@H](O)[C@H](O)C(C)(C)[C@@H]5CC[C@]43C)[C@@H]2C1 | Active | Active | inactive |  |  |  | 
7 | CC1(C)CC[C@]2(C(=O)O)CC[C@]3(C)C(=CC[C@@H]4[C@@]5(C)[C@@H](O)[C@H](O)[C@H](O)C(C)(C)[C@@H]5CC[C@]43C)[C@@H]2C1 |  | Active |  |  |  |  | 
8 | CCCCOC(=O)[C@]12CC[C@@H](C)[C@H](C)[C@H]1C1=CC[C@@H]3[C@@]4(C)[C@@H](O)[C@H](O)[C@H](O)C(C)(C)[C@@H]4CC[C@@]3(C)[C@]1(C)CC2 |  |  |  | 64 µM (≈ 34.9 µg/mL) | 8 µM (≈ 4.36 µg/mL) | ≥ 100 µM | inhibition of growth at 100 µM (Bacillus spizizenii [1]): > 95%; inhibition of growth at 100 µM (Staphylococcus aureus [2]): > 95%
9 | CCCCOC(=O)[C@]12CCC(C)(C)C[C@H]1C1=CC[C@@H]3[C@@]4(C)[C@@H](O)[C@H](O)[C@H](O)C(C)(C)[C@@H]4CC[C@@]3(C)[C@]1(C)CC2 |  |  |  | ≥ 100 µM | 8 µM (≈ 4.36 µg/mL) | ≥ 100 µM | inhibition of growth at 100 µM (Bacillus spizizenii [1]): > 95%; inhibition of growth at 100 µM (Staphylococcus aureus [2]): > 95%
10 | CCCOC(=O)[C@]12CC[C@@H](C)[C@H](C)[C@H]1C1=CC[C@@H]3[C@@]4(C)[C@@H](O)[C@H](O)[C@H](O)C(C)(C)[C@@H]4CC[C@@]3(C)[C@]1(C)CC2 |  |  |  | 32 µM (≈ 17 µg/mL) | 8 µM (≈ 4.25 µg/mL) | ≥ 100 µM | inhibition of growth at 100 µM (Bacillus spizizenii [1]): > 95%; inhibition of growth at 100 µM (Staphylococcus aureus [2]): > 95%
11 | CC(C)OC(=O)[C@]12CCC(C)(C)C[C@H]1C1=CC[C@@H]3[C@@]4(C)[C@@H](O)[C@H](O)[C@H](O)C(C)(C)[C@@H]4CC[C@@]3(C)[C@]1(C)CC2 |  |  |  | 64 µM (≈ 34 µg/mL) | 8 µM (≈ 4.25 µg/mL) | ≥ 100 µM | inhibition of growth at 100 µM (Bacillus spizizenii [1]): > 95%; inhibition of growth at 100 µM (Staphylococcus aureus [2]): > 95%
12 | C[C@H]1[C@H](C)CC[C@]2(C(=O)OCc3ccccc3)CC[C@]3(C)C(=CC[C@@H]4[C@@]5(C)[C@H]6O[C@H]6C(=O)C(C)(C)[C@@H]5CC[C@]43C)[C@H]12 | Active |  | Active |  |  |  | 
13 | CN[C@@H]1[C@H](O[C@H]2[C@H](O[C@H]3[C@H](O)[C@@H](O)[C@H](N=C(N)N)[C@@H](O)[C@@H]3N=C(N)N)O[C@@H](C)[C@]2(O)C=O)O[C@@H](CO)[C@H](O)[C@H]1O [STREPTOMYCIN] |  |  |  | 2 µM (≈ 1.16 µg/mL) | ≥ 100 µM | 4 µM (≈ 2.33 µg/mL) | 
14 | CCCCCCCCCCCCCCCOC(=O)[C@]12CC[C@@H](C)[C@H](C)[C@H]1C1=CC[C@@H]3[C@@]4(C)[C@@H](O)[C@H](O)[C@H](O)C(C)(C)[C@@H]4CC[C@@]3(C)[C@]1(C)CC2 | Active | Active |  |  |  |  | 
15 | CCCCCOC(=O)[C@]12CCC(C)(C)C[C@H]1C1=CC[C@@H]3[C@@]4(C)[C@@H](O)[C@H](O)[C@H](O)C(C)(C)[C@@H]4CC[C@@]3(C)[C@]1(C)CC2 | Active | Active |  |  |  |  | 
16 | CC1(C)CC[C@]2(C(=O)O)CC[C@]3(C)C(=CC[C@@H]4[C@@]5(C)C=CC(=O)C(C)(C)[C@@H]5CC[C@]43C)[C@@H]2C1 | Active | Active | Active |  |  |  | 
17 | CCCOC(=O)[C@]12CCC(C)(C)C[C@H]1C1=CC[C@@H]3[C@@]4(C)[C@@H](O)[C@H](O)[C@H](O)C(C)(C)[C@@H]4CC[C@@]3(C)[C@]1(C)CC2 |  |  |  | 64 µM (≈ 34 µg/mL) | 2 µM (≈ 1.06 µg/mL) | ≥ 100 µM | inhibition of growth at 100 µM (Bacillus spizizenii [1]): > 95%; inhibition of growth at 100 µM (Staphylococcus aureus [2]): > 95%; growth inhibition (GI) (Staphylococcus aureus [7]): Dose-dependent effect
18 | CC1(C)CC[C@]2(C(=O)O)CC[C@]3(C)C(=CC[C@@H]4[C@@]5(C)[C@H]6O[C@H]6C(=O)C(C)(C)[C@@H]5CC[C@]43C)[C@@H]2C1 | Active |  | Active |  |  |  | 
19 | C[C@H]1[C@H](C)CC[C@]2(C(=O)OCc3ccccc3Cl)CC[C@]3(C)C(=CC[C@@H]4[C@@]5(C)[C@@H](O)[C@H](O)[C@H](O)C(C)(C)[C@@H]5CC[C@]43C)[C@H]12 | Active | Active | inactive |  |  |  | 
20 | CC1(C)CC[C@]2(C(=O)OCc3ccc(Cl)cc3)CC[C@]3(C)C(=CC[C@@H]4[C@@]5(C)[C@@H](O)[C@H](O)[C@H](O)C(C)(C)[C@@H]5CC[C@]43C)[C@@H]2C1 |  |  | inactive | ≥ 100 µM | 64 µM (≈ 39.2 µg/mL) | ≥ 100 µM | 
21 | C[C@H]1[C@H](C)CC[C@]2(C(=O)OCc3ccccc3)CC[C@]3(C)C(=CC[C@@H]4[C@@]5(C)[C@@H](O)[C@H](O)[C@H](O)C(C)(C)[C@@H]5CC[C@]43C)[C@H]12 |  | Active |  |  |  |  | 
22 | CCCCCOC(=O)[C@]12CC[C@@H](C)[C@H](C)[C@H]1C1=CC[C@@H]3[C@@]4(C)[C@@H](O)[C@H](O)[C@H](O)C(C)(C)[C@@H]4CC[C@@]3(C)[C@]1(C)CC2 | Active | Active |  |  |  |  | 
23 | CC1(C)CC[C@]2(C(=O)OCc3ccccc3Cl)CC[C@]3(C)C(=CC[C@@H]4[C@@]5(C)[C@@H](O)[C@H](O)[C@H](O)C(C)(C)[C@@H]5CC[C@]43C)[C@@H]2C1 | Active | Active | inactive |  |  |  | 
24 | CC1(C)S[C@@H]2[C@H](NC(=O)[C@H](N)c3ccccc3)C(=O)N2[C@H]1C(=O)O [AMPICILLIN] |  |  |  | ≥ 100 µM | 4 µM (≈ 1.4 µg/mL) | ≥ 100 µM | 
25 | C[C@H]1[C@H](C)CC[C@]2(C(=O)OCc3ccccc3)CC[C@]3(C)C(=CC[C@@H]4[C@@]5(C)[C@H]6O[C@H]6[C@H](O)C(C)(C)[C@@H]5CC[C@]43C)[C@H]12 | Active | Active | Active |  |  |  | growth inhibition (GI) (Escherichia coli): Active; growth inhibition (GI) (Ralstonia solanacearum): Active
26 | CCCCCCCCCCCCCCCOC(=O)[C@]12CCC(C)(C)C[C@H]1C1=CC[C@@H]3[C@@]4(C)[C@@H](O)[C@H](O)[C@H](O)C(C)(C)[C@@H]4CC[C@@]3(C)[C@]1(C)CC2 | Active | Active |  |  |  |  | 
27 | CC1(C)CC[C@]2(C(=O)OCc3ccc([N+](=O)[O-])cc3)CC[C@]3(C)C(=CC[C@@H]4[C@@]5(C)[C@@H](O)[C@H](O)[C@H](O)C(C)(C)[C@@H]5CC[C@]43C)[C@@H]2C1 | Active | Active | inactive |  |  |  | 
28 | COC(=O)[C@]12CC[C@@H](C)[C@H](C)[C@H]1C1=CC[C@@H]3[C@@]4(C)[C@@H](O)[C@H](O)[C@H](O)C(C)(C)[C@@H]4CC[C@@]3(C)[C@]1(C)CC2 |  |  |  | 32 µM (≈ 16.1 µg/mL) | 8 µM (≈ 4.02 µg/mL) | 64 µM (≈ 32.2 µg/mL) | inhibition of growth at 100 µM (Bacillus spizizenii [1]): > 95%; inhibition of growth at 100 µM (Staphylococcus aureus [2]): > 95%
29 | C[C@H]1[C@H](C)CC[C@]2(C(=O)OCc3ccccc3)CC[C@]3(C)C(=CC[C@@H]4[C@@]5(C)C=CC(=O)C(C)(C)[C@@H]5CC[C@]43C)[C@H]12 | Active | Active | Active |  |  |  | 
